We go through one molecule from article PMC11855230, “Oligoethylene Phosphoramidate‐Based Kinase Inhibitor Prodrugs – Solubility, Enzyme Inhibition, and Hydrolysis” (Chemistry (Weinheim an Der Bergstrasse, Germany), 2025).

Converted amounts (≈) assume the structure as drawn.

Data set [1] in a line: Solubility limit in water (kinetic solubility) by UV/Vis optical density at 600 nm. The following applies: kinetic from dmso stock, absorption at 600 nm, read-out: c sol (water), solubility limit in water. Type of data set: physicochemical. An excerpt:
With all purified compounds in hand, we start to analyze the different properties of the conjugates and discuss the influence of the OEG‐chain lengths. We determine the solubility in water with UV/Vis spectroscopy by measuring the optical density at 600 nm. The absorption (A) is plotted against varying concentration (c) of the drug conjugates (see Figure S1). In the range, in which the drug and their conjugates are still soluble, A can be fitted linearly. When the solubility limit is reached, the drug crashes out of solution leading to scattering and reduced transmission manifesting a threshold, upon which the increase in absorption is fitted with a second line of higher slope. The intersection between the two linear fits gives the critical concentration for the kinetic solubility c sol. Detailed solubility plots can be found in the supporting information (see Figure S1). In our previous study with n=4, the solubility of all three kinase inhibitor prodrugs in water is improved over the native drug. However, the extent of improvement varies between the different kinase inhibitor prodrugs. For a better overview, we have included the performance of our previous study (see Figure 2).[21] […] We observe an improvement of solubility upon conjugation with all of our different OEG‐phosphates.
UV‐Vis Spectroscopy: Changes in solubility are measured with a Lambda 365 spectrometer by PerkinElmer supplied with UV WinLab software. Samples are prepared in water and placed in a 1 cm quartz cuvette.

In data set [2] the target is T1, cyclin‐dependent kinase 4 (CDK4) (Homo sapiens, UniProt P11802).
T1 construct: purchased biomol
T1 sequence (P11802 whole entry): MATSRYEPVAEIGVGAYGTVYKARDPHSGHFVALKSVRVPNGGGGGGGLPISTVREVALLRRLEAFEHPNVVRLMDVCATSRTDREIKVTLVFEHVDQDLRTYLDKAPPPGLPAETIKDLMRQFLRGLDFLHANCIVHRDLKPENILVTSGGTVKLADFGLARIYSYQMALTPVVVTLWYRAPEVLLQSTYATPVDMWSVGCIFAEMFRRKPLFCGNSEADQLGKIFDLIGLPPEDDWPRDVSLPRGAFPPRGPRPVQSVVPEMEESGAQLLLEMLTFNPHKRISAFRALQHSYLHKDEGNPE
T1 sequence (P30281 whole entry partner): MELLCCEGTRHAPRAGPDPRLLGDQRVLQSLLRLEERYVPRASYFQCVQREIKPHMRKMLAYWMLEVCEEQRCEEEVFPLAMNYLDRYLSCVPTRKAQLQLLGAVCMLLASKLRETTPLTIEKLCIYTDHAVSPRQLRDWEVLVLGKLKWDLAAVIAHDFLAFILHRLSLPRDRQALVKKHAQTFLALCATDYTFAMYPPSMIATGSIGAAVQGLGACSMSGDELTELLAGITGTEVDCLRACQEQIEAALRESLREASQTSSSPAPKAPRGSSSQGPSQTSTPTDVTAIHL
The experiment in a line: CDK4 cell free enzyme (kinase) inhibition assay, luminescence. Particulars: 1 % DMSO, duplicates. The format is biochemical. On the procedure:
Apart from solubility and self‐assembly, we investigate the inhibitory potential against the respectively targeted receptors.
Enzyme Binding Assays (CDK4):[21] […] The instructions are followed with some specifications: DTT (10 μL of 1 M DTT to 1 mL buffer) is added to the buffer solution and the assay is performed with 1 % DMSO in the final reaction volume. Serial dilutions of inhibitor (5 μL) are mixed with 20 μL enzyme (10 ng/μL), 5 μL of 10x CDK4 substrate peptide and 1 μL ATP solution (500 μM) in a 96‐well plate. The blank contains no enzyme and no inhibitor. The positive control contains enzyme but no inhibitor. The receptor inhibitory rate is calculated from the luminescence as IC50. […] Luminescence is recorded on Promega GloMax Navigator Microplate Luminometer. Samples are prepared in duplicates.

Data set [3] in a line: Dynamic light scattering (DLS) of drug‐conjugates in water. Type of data set: physicochemical. The protocol:
To study, whether self‐assembly into micelles might have an effect on the solubility limit of the prodrugs, we perform dynamic light scattering (DLS) of the drug‐conjugates in water. […] Micelles below 6 nm (Cer‐OEG8 , Cri‐OEG3 , Cri‐OEG8 , Pal‐OEG3 , Rib‐OEG2 , and Rib‐OEG3 ) are potentially affected by renal clearance.
Dynamic Light Scattering (DLS): Possible self‐assemblies are investigated with DLS Nano‐Zetasizer (Malvern Instruments) at 25 °C with a scattering angle of 173° at λ=633 nm.

Data set [4] relates to HeLa cells. In words: Cell uptake in HeLa cells by confocal laser scanning microscopy (CLSM). Type of data set: cell-based. Particulars: 25 μM, 23 h, excitation 405 nm. On the procedure:
Altogether an OEG chain length of n=4 seems to be favorable for producing prodrugs with improved solubility from kinase inhibitors. […] Here we therefore concentrate on Rib‐OEG4 . […] The drug and its conjugate are exited at 405 nm, leading to weak fluorescence of the drugs.
Uptake is followed by Confocal for 23 h using Leica TCS SP8 Lightning confocal microscope with an OnkoLab incubator chamber with a constant temperature of 37 °C and a 5 % CO2 atmosphere at 95 % humidity (gas flow: 0.1 L/min). Drug and drug‐OEG conjugate is excited at 405 nm.

Data set [5] concerns HeLa cells. In words: Cellular drug release in HeLa cells, LC–MS of cell lysate. The format is cell-based. The following applies: 20 μM, 48 h. The protocol:
HeLa cells are treated with Rib‐OEG4 for 48 h followed by cell lysis. The cell lysate is analyzed with liquid chromatography‐mass spectrometry (LC–MS). […] This confirms that release of the drug is possible in cells and that the low pH in some of the cell compartments, such as the lysosomes, yield release of the effective drug molecule.
Cellular Drug‐Release with LC–MS: Drug release studies are performed according to previous publication with 20 μM of Rib‐OEG4 .[21]

Where [6] appears, read: DLS in water, at the concentration given per compound (Figures S2–S5).

On to `COCCOCCOCCOCCOP(=O)(OCCOCCOCCOCCOC)N1CCN(c2ccc(Nc3ncc4cc(C(=O)N(C)C)n(C5CCCC5)c4n3)nc2)CC1` [Rib‐OEG4], for which, in data set [1], the solubility amounted to 9.33 mM (≈ 8350 µg/mL). This molecule yielded an IC50 in data set [2] of 12 nM. In data set [3] (DLS in water at critical solution concentration c sol, 25 °C), the hydrodynamic diameter d came to 92 nm. Also, in data set [3] (setting [6]), the PDI is 0.35 and the hydrodynamic diameter came to 92 nm. Further, the “uptake in HeLa cells” value in data set [4] is recorded as “taken up by the cells”. For the same molecule, the “release of native drug from prodrug in HeLa cells” value in data set [5] is listed as “most of the native drug has been released”.

Usually solubility stands for how much of the substance goes into solution per volume. Broadly, the IC50 is the concentration at which inhibition is half-maximal. A low value points to greater potency.
